Measurements as given in patent US6026817A, “Method of treating the syndrome of coronary heart disease risk factors in humans” (priority 1998, dated 2000).

Columns and labels:
[1] = tested on: patients with prolactin-producing tumors of the pituitary gland; details: cited from earlier work
[2] = tested on: insulin resistant subject; assay: Example I: metyrosine given to an insulin resistant subject, fasting blood values; type: in vivo, human
Protocol: A insulin resistant subject was given 250 mg metyrosine twice daily.

[3] = tested on: experimental brain trauma; details: in vivo; cited from earlier work
adult male rats = details: intracisternal administration, conscious rats, dose related; cited from earlier work
[4] = 8 weeks of 250 mg twice daily vs initial
[5] = initial levels, before treatment

CC(C)C[C@H]1C(=O)N2CCC[C@H]2[C@]2(O)O[C@](NC(=O)[C@@H]3C=C4c5cccc6[nH]c(Br)c(c56)C[C@H]4N(C)C3)(C(C)C)C(=O)N12 [bromocriptine, 2-bromo-α-ergocryptine]
glucose tolerance [1]: improves glucose tolerance | insulin values [1]: decreases insulin values toward normal

C[C@](N)(Cc1ccc(O)cc1)C(=O)O [metyrosine, α-methyltyrosine]
Chol. Tot ([2]; 4 weeks after discontinuation): 254 mg/dL | FFA ([2]; 4 weeks after discontinuation): 747 μE/ml | Glucose ([2]; 4 weeks after discontinuation): 122 mg/dL | HDL ([2]; 4 weeks after discontinuation): 37 mg/dL | Insulin ([2]; 4 weeks after discontinuation): 15 μU/ml | LDL ([2]; 4 weeks after discontinuation): 189 mg/dL | LDL/HDL ([2]; 4 weeks after discontinuation): 5.1 | TG ([2]; 4 weeks after discontinuation): 211 mg/dL | all values after discontinuation of the treatment regimen ([2]; 4 weeks following discontinuation): returned essentially to their pre-study levels | Chol. Tot ([2]; 8 weeks of 250 mg twice daily): 209 mg/dL | Glucose ([2]; 8 weeks of 250 mg twice daily): 110 mg/dL | HDL ([2]; 8 weeks of 250 mg twice daily): 27 mg/dL | Insulin ([2]; 8 weeks of 250 mg twice daily): 13 μU/ml | LDL ([2]; 8 weeks of 250 mg twice daily): 134 mg/dL | LDL/HDL ([2]; 8 weeks of 250 mg twice daily): 5.0 | TG ([2]; 8 weeks of 250 mg twice daily): 144 mg/dL | free fatty acids (FFA) ([2]; 8 weeks of 250 mg twice daily): 575 μE/L | FFA ([2]; 8 weeks of 250 mg twice daily (Table I)): 575 μE/ml | decrease of HDL [2, 4]: 34% | decrease of LDL [2, 4]: 24% | decrease of fasting blood glucose level (BGL) [2, 4]: 10% | decrease of free fatty acids (FFA) [2, 4]: 23% | decrease of insulin [2, 4]: 32% | decrease of total cholesterol (TCH) [2, 4]: 30% | decrease of triglycerides (TG) [2, 4]: 31% | HDL ([2]; 14 weeks of 250 mg twice daily): 39 mg/dL | LDL ([2]; 14 weeks of 250 mg twice daily): 119 mg/dL | LDL/HDL ([2]; 14 weeks of 250 mg twice daily): 3.1 | total reduction of LDL from the beginning of the study ([2]; 14 weeks of 250 mg twice daily): 32% | free fatty acids (FFA) ([2]; initial level): 742 μE/L | Chol. Tot [2, 5]: 299 mg/dL | Glucose [2, 5]: 121 mg/dL | HDL [2, 5]: 41 mg/dL | Insulin [2, 5]: 19 μU/ml | LDL [2, 5]: 176 mg/dL | LDL/HDL [2, 5]: 4.3 | TG [2, 5]: 208 mg/dL | FFA ([2]; initial levels, before treatment (Table I)): 742 μE/ml | body weight ([2]; week 8): slight decrease

Oc1ccc2c3c1O[C@H]1c4[nH]c5c(c4C[C@@]4(O)[C@@H](C2)N(CC2CC2)CC[C@]314)C[C@@]1(O)[C@H]2Cc3ccc(O)c4c3[C@@]1(CCN2CC1CC1)[C@H]5O4 [nor-binaltorphimine]
outcome after experimental brain trauma [3]: improves the outcome

β-endorphin: synthetic human β-endorphin (YGGFMTSEKSQTPLVTLFKNAIIKNAYKKGE; Beta-endorphin; UniProt P01189 237-267, looked up)
plasma concentrations of catecholamines (adult male rats): increased plasma concentrations of epinephrine, norepinephine, and dopamine
